≈ marks a conversion by molar mass, not a printed value. Where two headings read alike, the source gives them in different places.
How the values were obtained:
[1] = system: Enterococcus faecalis ATCC 29212; assay: MIC, broth microdilution (NCCLS), E. faecalis ATCC 29212; format: cell-based; conditions: read-out: Minimal Inhibitory Concentration (MIC)
Protocol: (§1) Test compounds were assayed against Staphylococcus aureus FDA 209P by the 10 fold agar disc diffusion assay on BHI-plates at pH=7 and pH=9 in accordance with the procedure from the National Committee for Clinical Laboratory Standards 1989. Susceptibility testing. A panel of 16 bacteria was used to evaluate the antimicrobial activity of the compounds (Table 2). The MIC of each antimicrobial agent was determined using a microdilution method according to NCCLS standards^1. Serial twofold dilutions of antibiotics were prepared in Mueller-Hinton broth (Difco Laboratories, Detroit, Mich.). Bacteria were grown to early log phase at 35° C. (1 hours) in Mueller-Hinton broth and cultures were diluted to achieve a final inoculum of 5×10^5 CFU per ml. Microtiter plates were incubated at 35° C. for 20 h and then were read using a Thermomax microplate reader (Molecular Devices, Sunnyvale, Calif.) and a microtiter plate reading mirror. The MIC was defined as the lowest concentration of antibiotic which inhibited the development of visible growth at the end of the incubation period. The standard reference strains were Staphyloccocus aureus ATCC […], Enterococcus faecalis ATCC 29212, E. faecium ATCC 35667, Escherichia coli ATCC 25922, and Pseudomonas aeruginosa ATCC 27853. Imipenem and vancomycin were used as antibiotic controls and values for reference strains were in accordance with the NCCLS.
(§2) Enterococcus ATCC Reference strain

[2] = system: Staphylococcus aureus PC1; assay: MIC, broth microdilution (NCCLS), S. aureus PC1; format: cell-based; conditions: read-out: Minimal Inhibitory Concentration (MIC)
Protocol: as §1
Staphylococcus Type A βlactamase
aureus PC1 hyperproducer

[3] = system: Escherichia coli ATCC 25922; assay: MIC, broth microdilution (NCCLS), E. coli ATCC 25922; format: cell-based; conditions: read-out: Minimal Inhibitory Concentration (MIC)
Protocol: as §1

[4] = system: Staphylococcus haemolyticus UA281; assay: MIC, broth microdilution (NCCLS), S. haemolyticus UA281; format: cell-based; conditions: read-out: Minimal Inhibitory Concentration (MIC)
Protocol: as §1
(§3) Staphylococcus Methicillin
haemolyticus UA281 resistant

[5] = system: Staphylococcus aureus COL; assay: MIC, broth microdilution (NCCLS), S. aureus COL; format: cell-based; conditions: 20 h, read-out: Minimal Inhibitory Concentration (MIC)
Protocol: as §1, §3
aureus COL resistant, β-

[6] = system: Staphylococcus aureus sa201; assay: MIC, broth microdilution (NCCLS), S. aureus sa201; format: cell-based; conditions: read-out: Minimal Inhibitory Concentration (MIC)
Protocol: as §1
Staphylococcus Clinical isolate,
aureus sa201 Spain resistant, β-

[7] = system: Staphylococcus aureus ATCC 29213; assay: MIC, broth microdilution (NCCLS), S. aureus ATCC 29213; format: cell-based; conditions: read-out: Minimal Inhibitory Concentration (MIC)
Protocol: as §1
Staphylococcus ATCC Reference strain

[8] = system: Enterococcus faecium ATCC 35667; assay: MIC, broth microdilution (NCCLS), E. faecium ATCC 35667; format: cell-based; conditions: read-out: Minimal Inhibitory Concentration (MIC)
Protocol: as §1, §2

[9] = system: Staphylococcus aureus 76; assay: MIC, broth microdilution (NCCLS), S. aureus 76; format: cell-based; conditions: read-out: Minimal Inhibitory Concentration (MIC)
Protocol: as §1, §3

[10] = system: Staphylococcus aureus ATCC 33593; assay: MIC, broth microdilution (NCCLS), S. aureus ATCC 33593; format: cell-based; conditions: read-out: Minimal Inhibitory Concentration (MIC)
Protocol: as §1
Staphylococcus ATCC Methicillin
aureus ATCC 33593 resistant, β-

[11] = system: Enterococcus faecium efm040; assay: MIC, broth microdilution (NCCLS), E. faecium efm040; format: cell-based; conditions: read-out: Minimal Inhibitory Concentration (MIC)
Protocol: as §1
Enterococcus Clinical isolate,
faecium efm040 U.S.A. resistant

[12] = system: Enterococcus faecium BM4147; assay: MIC, broth microdilution (NCCLS), E. faecium BM4147; format: cell-based; conditions: read-out: Minimal Inhibitory Concentration (MIC)
Protocol: as §1
(§4) Enterococcus Vancomycin
faecium BM4147 resistant, vanA

[13] = system: Pseudomonas Aeruginosa ATCC 27853; assay: MIC, broth microdilution (NCCLS), P. aeruginosa ATCC 27853; format: cell-based; conditions: read-out: Minimal Inhibitory Concentration (MIC)
Protocol: as §1

[14] = system: Enterococcus faecalis V583; assay: MIC, broth microdilution (NCCLS), E. faecalis V583; format: cell-based; conditions: read-out: Minimal Inhibitory Concentration (MIC)
Protocol: as §1, §4
faecalis V583 resistant, vanB

[15] = system: Staphylococcus aureus sa ATCC 13709; assay: MIC, broth microdilution (NCCLS), S. aureus sa ATCC 13709; format: cell-based; conditions: read-out: Minimal Inhibitory Concentration (MIC)
Protocol: as §1

[16] = system: Staphylococcus aureus COL8A; assay: MIC, broth microdilution (NCCLS), S. aureus COL8A; format: cell-based; conditions: 20 h, read-out: Minimal Inhibitory Concentration (MIC)
Protocol: as §1, §3
aureus COL8A susceptible, […]

[17] = basic aqueous solutions; hydrolytic opening of six-membered ring; cited from earlier work
[18] = cited from earlier work
[19] = system: Gram-positive and Gram-negative bacteria; conditions: S- versus R-configuration in the heterocyclic portion; cited from earlier work
[20] = Stability of cyclization product 29; format: physicochemical
Protocol: To a mixture of 28 (70 mg, 0.067 mmol, 1.0 eq) and anisole (0.1 mL) was added TFA (1.0 mL). the resulting mixture was stirred for 15 min at room temperature. The TFA was evaporated and coevaporated with CH2 Cl2 to dryness. The resulting residue was dried on vacuo for 2 h and triturated with ethyl ether to give a white solid. This white solid was dissolved in THF (1.5 mL). To this solution was added triethylamine (20 μL, 0.14 mmol, 2.0 eq). After stirring 10 min., the solvent was evaporated and the resulting residue was immediately purified by PTLC (silica gel, CH2 Cl2 : EtOAc: MeOH, 4:1:0.5) to give 40 mg (67%) of 29 as a white solid. This product was unstable with a tendency to form a bicycle by-product (t1/2 is about 1 day) and was used for the next step immediately. ^1 H NMR (300 MHz, CD3 Cl/D2 O vs TMS): δ1.62 (4H, m); 2.45 (2H, m); 2.76/2.78 (3H, s); 3.32 (1H, m); 3.70 (1H, m); 3.93 (4H, m); 5.17 (6H, m); 7.32 (20H, m) ppm. IR (NaCl, film): 3381, 3258, 2934, 1765, 1713, 1646, 1608, 1504, 1452, 1252, 1186, 1096, 1063 cm^-1. MS (ES+): Calcd. for (C45 H49 N9 O11 +H)=892.4. Found (M+H)=892.4; (M+H-108)=784.3.

[21] = ATCC29212, E. faecalis ATCC 29212, reference strain, 35° C., 20 h
[22] = S. aureus PC1, Type A βlactamase hyperproducer, 35° C., 20 h
[23] = ATCC25922, E. coli ATCC 25922, reference strain, 35° C., 20 h
[24] = S. haemolyticus UA281, methicillin resistant, 35° C., 20 h
[25] = S. aureus COL, methicillin resistant, β-lactamase negative, 35° C.
[26] = S. aureus sa201, clinical isolate Spain, methicillin resistant, β-lactamase positive, 35° C., 20 h
[27] = ATCC29213, S. aureus ATCC 29213, reference strain, 35° C., 20 h
[28] = ATCC35667, E. faecium ATCC 35667, reference strain, 35° C., 20 h
[29] = Staphylococcus aureus, S. aureus 76, methicillin resistant, β-lactamase positive, 35° C., 20 h
[30] = ATCC33593, S. aureus ATCC 33593, methicillin resistant, β-lactamase positive, 35° C., 20 h
[31] = E. faecium efm040, clinical isolate U.S.A., ampicillin resistant, 35° C., 20 h
[32] = E. faecium BM4147, vancomycin resistant, vanA, 35° C., 20 h
[33] = ATCC27853, P. aeruginosa ATCC 27853, reference strain, 35° C., 20 h
[34] = E. faecalis V583, vancomycin resistant, vanB, 35° C., 20 h
[35] = ATCC13709, S. aureus sa ATCC 13709, Smith strain, 35° C., 20 h

Row | Compound | MIC [1, 21] [µg/mL] | MIC [2, 22] [µg/mL] | MIC [3, 23] [µg/mL] | MIC [4, 24] [µg/mL] | MIC [5, 25] [µg/mL] | MIC [6, 26] [µg/mL] | MIC [7, 27] [µg/mL] | MIC [8, 28] [µg/mL] | MIC [9, 29] [µg/mL] | MIC [10, 30] [µg/mL] | MIC [11, 31] [µg/mL] | MIC [12, 32] [µg/mL] | MIC [13, 33] [µg/mL] | MIC [15, 35] [µg/mL] | MIC [16] [µg/mL] | further results
1 | C[C@@H](O)[C@H]1C(=O)N2C(C(=O)O)=C(SCCN=CN)C[C@H]12 [Imipenem] | 0.5 (≈ 1.67 µM) | ≤ 0.25 | ≤ 0.25 | 64 (≈ 214 µM) | 32 (≈ 107 µM) | 64 (≈ 214 µM) | ≤ 0.25 | 4 (≈ 13.4 µM) | 8 (≈ 26.7 µM) | 8 (≈ 26.7 µM) | > 128 | 8 (≈ 26.7 µM) | 1 (≈ 3.34 µM) | ≤ 0.25 | ≤ 0.25 | MIC [14, 34]: 0.5 µg/mL (≈ 1.67 µM)
2 | CN(C(=O)C[C@@H](N)CCCNC(=N)N)[C@@H]1CNC(NC(N)=O)=NC1=O [TAN-1057B] |  |  |  |  |  |  |  |  |  |  |  |  |  |  |  | loss of antibacterial activity in basic aqueous solutions [17]: gradually lost their antibacterial activities in basic aqueous solutions
3 | CN1C(=O)C[C@H](CCCNC(=N)N)NC(=O)[C@H]1CNC(=N)NC(N)=O [TAN-1057C] |  |  |  |  |  |  |  |  |  |  |  |  |  |  |  | conversion upon standing in water [18]: rapidly convert to a mixture of TAN-1057A/B upon standing in water
4 | CC(=O)NC1=NC(=O)C(N(C)C(=O)C[C@@H](N)CCCNC(=N)N)CN1 (some centres unmarked) [Compound 73a, 3S,5'S/R-3-amino-6-[(aminoiminomethyl)amino]-N-(2-acetylamino-1,4,5,6-tetrahydro-4-oxo-5-pyrimidinyl)-N-methyl-hexanamide] | 32 (≈ 90.3 µM) | 8 (≈ 22.6 µM) | 128 (≈ 361 µM) | 128 (≈ 361 µM) | 16 (≈ 45.1 µM) | 16 (≈ 45.1 µM) | 16 (≈ 45.1 µM) | 64 (≈ 181 µM) | 16 (≈ 45.1 µM) | 8 (≈ 22.6 µM) | 256 (≈ 722 µM) | 128 (≈ 361 µM) | 256 (≈ 722 µM) | 16 (≈ 45.1 µM) | 16 (≈ 45.1 µM) | 
5 | CN1C(=O)C[C@H](CCCNC(=N)N)NC(=O)[C@@H]1CNC(=N)NC(N)=O [TAN-1057D] |  |  |  |  |  |  |  |  |  |  |  |  |  |  |  | conversion upon standing in water [18]: rapidly convert to a mixture of TAN-1057A/B upon standing in water; relative antibacterial activity of stereoisomers [19]: more active than TAN-1057 B and C
6 | CN[C@H](CC(C)C)C(=O)N[C@H]1C(=O)N[C@@H](CC(N)=O)C(=O)N[C@H]2C(=O)N[C@H]3C(=O)N[C@H](C(=O)N[C@H](C(=O)O)c4cc(O)cc(O)c4-c4cc3ccc4O)[C@H](O)c3ccc(c(Cl)c3)Oc3cc2cc(c3O[C@@H]2O[C@H](CO)[C@@H](O)[C@H](O)[C@H]2O[C@H]2C[C@](C)(N)[C@H](O)[C@H](C)O2)Oc2ccc(cc2Cl)[C@H]1O [Vancomycin, vancomycin] |  |  |  |  |  |  |  |  |  |  |  |  |  |  | ≤ 0.25 | MIC ([1]; ATCC29212, 20 h): 1 µg/mL (≈ 0.69 µM); MIC ([2]; PC1, 20 h): ≤ 0.25 µg/mL; MIC ([3]; ATCC25922, 20 h): > 128 µg/mL; MIC ([4]; UA281, 20 h): 1 µg/mL (≈ 0.69 µM); MIC [5]: 1 µg/mL (≈ 0.69 µM); MIC ([6]; SA201, 20 h): 0.5 µg/mL (≈ 0.345 µM); MIC ([7]; ATCC29213, 20 h): ≤ 0.25 µg/mL; MIC ([8]; ATCC35667, 20 h): ≤ 0.25 µg/mL; MIC ([9]; Staphylococcus aureus, 76, 20 h): ≤ 0.25 µg/mL; MIC ([10]; ATCC33593, 20 h): 0.5 µg/mL (≈ 0.345 µM); MIC ([11]; EFM040, 20 h): ≤ 0.25 µg/mL; MIC ([12]; BM4147, 20 h): > 128 µg/mL; MIC ([13]; ATCC27853, 20 h): > 128 µg/mL; MIC ([14]; V583, 20 h): 16 µg/mL (≈ 11 µM); MIC ([15]; ATCC13709, 20 h): ≤ 0.25 µg/mL
7 | CN(C(=O)C[C@H](CCCN(C(=N)NC(=O)OCc1ccccc1)C(=O)OCc1ccccc1)NC(=O)OCc1ccccc1)C1CNC(NC(=O)NC(=O)OCc2ccccc2)=NC1=O (some centres unmarked) [Compound 29] |  |  |  |  |  |  |  |  |  |  |  |  |  |  |  | t1/2 (tendency to form a bicycle by-product) [20]: about 1 day
8 | COC(=O)NC1=NC(=O)C(N(C)C(=O)C[C@@H](N)CCCNC(=N)N)CN1 (some centres unmarked) [Compound 73c, 3S,5'S/R-3-amino-6-[(aminoiminomethyl)amino]-N-(2-methoxycarbonylamino-1,4,5,6-tetrahydro-4-oxo-5-pyrimidinyl)-N-methyl-hexanamide] | 64 (≈ 173 µM) | 32 (≈ 86.4 µM) | > 256 | 256 (≈ 691 µM) | 64 (≈ 173 µM) | 64 (≈ 173 µM) | 64 (≈ 173 µM) | 128 (≈ 346 µM) | 64 (≈ 173 µM) | 64 (≈ 173 µM) | > 256 | 64 (≈ 173 µM) | > 256 | 32 (≈ 86.4 µM) | 64 (≈ 173 µM) | MIC [14, 34]: 64 µg/mL (≈ 173 µM)

From US6162925A, “Antibiotic for methicillin resistant bacteria” (Research Corporation Tech., Inc., priority 1999, dated 2000)
